From US9828396B2, “Alkyne compounds for treatment of complement mediated disorders” (Achillion Pharmaceuticals, Inc., priority 2014, dated 2017)

molecular target: Human factor D (Homo sapiens (Human), UniProt P00746); experiment: Human Factor D Assay; type: biochemical; conditions: Human factor D 80 nM, substrate Z-L-Lys-SBzl, assay of Example 12
Procedure: Example 12. Human Factor D Assay
Human factor D (purified from human serum, Complement Technology, Inc.) at 80 nM final concentration is incubated with test compound at various concentrations for 5 minutes at room temperature in 50 mM Tris, 1M NaCl, pH 7.5. A synthetic substrate Z-L-Lys-SBzl and DTNB (Ellman's reagent) are added to final concentrations of 100 μM each. The increase in color is recorded at OD405 nm in a microplate in kinetic mode over 30 minutes with 30 second time points in a spectrofluorimeter. IC50 values are calculated by non-linear regression from the percentage of inhibition of complement factor D activity as a function of test compound concentration.

Human factor D, sequence (P00746 26-253): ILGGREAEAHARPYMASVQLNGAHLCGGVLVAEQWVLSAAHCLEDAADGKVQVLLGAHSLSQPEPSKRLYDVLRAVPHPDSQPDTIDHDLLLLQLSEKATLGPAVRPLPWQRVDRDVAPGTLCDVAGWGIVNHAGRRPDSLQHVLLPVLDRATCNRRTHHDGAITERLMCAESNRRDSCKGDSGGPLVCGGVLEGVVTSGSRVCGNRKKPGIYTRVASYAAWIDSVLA

| SMILES | IC50 [nM] |
| --- | --- |
| NC(=O)c1nn(CC(=O)N2C[C@H](F)C[C@H]2C(=O)Nc2cccc(-c3ncccc3Cl)c2F)c2ccc(C#Cc3ncccn3)cc12 [Compound 28, 1-(2-((2S,4R)-2-(3-(3-chloropyridin-2-yl)-2-fluorophenylcarbamoyl)-4-fluoropyrrolidin-1-yl)-2-oxoethyl)-5-(pyrimidin-2-ylethynyl)-1H-indazole-3-carboxamide] | < 1000 |
| NC(=O)c1nn(CC(=O)N2C[C@H](F)C[C@H]2C(=O)NCc2cccc(Cl)c2F)c2ccc(C#Cc3cn[nH]c3)cc12 [Compound 29, 5-((1H-pyrazol-4-yl)ethynyl)-1-(2-((2S,4R)-2-(3-chloro-2-fluorobenzylcarbamoyl)-4-fluoropyrrolidin-1-yl)-2-oxoethyl)-1H-indazole-3-carboxamide] | < 1000 |
| NC(=O)c1nn(CC(=O)N2C[C@H](F)C[C@H]2C(=O)Nc2cccc(-c3cccc(Cl)c3)c2F)c2ccc(C#Cc3ncccn3)cc12 [Compound 30, 1-(2-((2S,4R)-2-(3′-chloro-2-fluorobiphenyl-3-ylcarbamoyl)-4-fluoropyrrolidin-1-yl)-2-oxoethyl)-5-(pyrimidin-2-ylethynyl)-1H-indazole-3-carboxamide] | < 1000 |
| NC(=O)c1nn(CC(=O)N2C[C@H](F)C[C@H]2C(=O)N2CCc3c([nH]c4ccccc34)C2)c2ccc(C#Cc3ncccn3)cc12 [Compound 31, 1-(2-((2S,4R)-4-fluoro-2-(2,3,4,9-tetrahydro-1H-pyrido[3,4-b]indole-2-carbonyl)pyrrolidin-1-yl)-2-oxoethyl)-5-(pyrimidin-2-ylethynyl)-1H-indazole-3-carboxamide] | > 10000 |
| NC(=O)c1nn(CC(=O)N2C[C@H](F)C[C@H]2C(=O)NCc2cccc(Cl)c2F)c2cnc(C#Cc3ncccn3)cc12 [Compound 32, 1-(2-((2S,4R)-2-(3-chloro-2-fluorobenzylcarbamoyl)-4-fluoropyrrolidin-1-yl)-2-oxoethyl)-5-(pyrimidin-2-ylethynyl)-1H-pyrazolo[3,4-c]pyridine-3-carboxamide] | < 1000 |
| NC(=O)c1nn(CC(=O)N2C[C@H](F)C[C@H]2C(=O)Nc2cccc(C(F)(F)F)n2)c2ccc(C#Cc3ncccn3)cc12 [Compound 33, 1-(2-((2S,4R)-4-fluoro-2-(6-(trifluoromethyl)pyridin-2-ylcarbamoyl)pyrrolidin-1-yl)-2-oxoethyl)-5-(pyrimidin-2-ylethynyl)-1H-indazole-3-carboxamide] | < 1000 |
| NC(=O)c1nn(CC(=O)N2[C@@H]3C[C@@H]3C[C@H]2C(=O)Nc2cccc(OC(F)(F)F)c2F)c2ccc(C#Cc3ncccn3)cc12 [Compound 34, 1-(2-((1R,3S,5R)-3-(2-fluoro-3-(trifluoromethoxy)phenyl-carbamoyl)-2-azabicyclo[3.1.0]hexan-2-yl)-2-oxoethyl)-5-(pyrimidin-2-ylethynyl)-1H-indazole-3-carboxamide] | < 1000 |
| NC(=O)c1nn(CC(=O)N2C[C@H](F)C[C@H]2C(=O)NCc2cccc(Cl)c2F)c2ccc(C#Cc3ccc(F)cn3)cc12 [Compound 35, 1-(2-((2S,4R)-2-(3-chloro-2-fluorobenzylcarbamoyl)-4-fluoropyrrolidin-1-yl)-2-oxoethyl)-5-((5-fluoropyridin-2-yl)ethynyl)-1H-indazole-3-carboxamide] | < 1000 |
| NC(=O)c1nn(CC(=O)N2C[C@H](F)C[C@H]2C(=O)NCc2cccc(Cl)c2F)c2ccc(C#Cc3cccc(N)n3)cc12 [Compound 36, 5-((6-aminopyridin-2-yl)ethynyl)-1-(2-((2S,4R)-2-(3-chloro-2-fluorobenzylcarbamoyl)-4-fluoropyrrolidin-1-yl)-2-oxoethyl)-1H-indazole-3-carboxamide] | < 1000 |
| NC(=O)c1nn(CC(=O)N2C[C@H](F)C[C@H]2C(=O)NCc2cccc(Cl)c2F)c2ccc(C#Cc3cccc(F)n3)cc12 [Compound 37, 1-(2-((2S,4R)-2-(3-chloro-2-fluorobenzylcarbamoyl)-4-fluoropyrrolidin-1-yl)-2-oxoethyl)-5-((6-fluoropyridin-2-yl)ethynyl)-1H-indazole-3-carboxamide] | < 1000 |
